Results on 24 molecules are retold here after patent publication US11730720B2, “ALK5 inhibitors” (THERAVANCE BIOPHARMA R&D IP, LLC, priority 2018, dated 2023).

Each structure is given as a SMILES string. Some results are limits rather than exact numbers.

Experiment [1] deals with T1, recombinant human ALK5 (TGF-βR1) protein (Homo sapiens, UniProt P36897).
T1 construct: purchased Life Technologies PR9075A
T1 sequence (P36897 34-503): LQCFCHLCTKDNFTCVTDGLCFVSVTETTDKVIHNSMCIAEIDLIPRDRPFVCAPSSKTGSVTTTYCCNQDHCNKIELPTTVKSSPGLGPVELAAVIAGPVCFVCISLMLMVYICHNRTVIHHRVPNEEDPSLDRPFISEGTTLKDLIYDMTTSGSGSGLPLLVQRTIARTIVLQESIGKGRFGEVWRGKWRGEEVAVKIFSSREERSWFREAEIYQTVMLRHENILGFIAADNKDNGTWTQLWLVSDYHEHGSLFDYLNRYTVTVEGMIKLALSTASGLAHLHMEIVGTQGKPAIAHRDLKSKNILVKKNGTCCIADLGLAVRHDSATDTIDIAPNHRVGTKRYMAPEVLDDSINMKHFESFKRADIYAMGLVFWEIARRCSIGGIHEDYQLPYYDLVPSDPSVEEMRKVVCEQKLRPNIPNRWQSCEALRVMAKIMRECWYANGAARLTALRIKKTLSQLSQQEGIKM
Briefly: Biochemical ALK5 (TGF-βR1) assay to measure pKi (LANCE Ultra ULight kinase assay). The conditions noted are these: apparent pKi, converted from pIC50 using the Cheng-Prusoff equation. Summed up: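 TR-FRET kinase format: compound dose range 10 μM–25 pM equilibrated 60 min with human ALK5 and ULight-labelled topoisomerase 2α peptide in HEPES/MgCl2 buffer pH 7.5 with DTT. Reaction started with ATP (125 μM stock, 5× final), 60 min at 37° C, stopped with EDTA/Eu-anti-phospho antibody; pKi derived from pIC50 via Cheng-Prusoff.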

Experiment [2] relates to TGF-β-stimulated SMAD3 phosphorylation in BEAS-2B cells. Briefly: Cellular ALK5 potency assay, inhibition of TGF-β stimulated pSMAD3 formation in BEAS-2B cells. It is filed as cell-based. The conditions noted are these: Homo sapiens, inhibition of TGF-β (10 ng/mL) stimulated pSMAD3 formation, 1 hour compound incubation, read-out: BEAS2B pIC50 (converted). Summed up: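 Phospho-SMAD3 was quantified by AlphaLISA in lysates of human lung epithelial BEAS-2B cells. Compound was added 1 h (37 °C, HEPES/BSA-supplemented HBSS) before a 30 min challenge with 10 ng/mL TGF-β. Values are pIC50 relative to stimulated cells without compound.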

Consider `NC1CN(c2cnc3ccc(-c4c[nH]nc4-c4cc(Cl)ccc4F)nc3c2)C1` [Compound 1-52, 1-[6-[3-(5-chloro-2-fluoro-phenyl)-1H-pyrazol-4-yl]-1,5-naphthyridin-3-yl]azetidin-3-amine], for which the Ki in experiment [1] is 0.0398 to 0.316 nM. Moreover, in experiment [2], the IC50 was ≤ 20 nM.

Take `CN(CCN1CCNCC1)c1cnc2ccc(-c3c[nH]nc3-c3cc(Cl)ccc3F)nc2c1` [Compound 1-53, 6-[3-(5-chloro-2-fluoro-phenyl)-1H-pyrazol-4-yl]-N-methyl-N-(2-piperazin-1-ylethyl)-1,5-naphthyridin-3-amine]: the Ki in experiment [1] was 0.0398 to 0.316 nM. The IC50 in experiment [2] was 25.1 to 158 nM.

For `Fc1ccc(Cl)cc1-c1n[nH]cc1-c1ccc2ncc(N3CC4CNCC43)cc2n1` (stereo not drawn) [Compound 1-54, 2-[3-(5-chloro-2-fluoro-phenyl)-1H-pyrazol-4-yl]-7-(3,6-diazabicyclo[3.2.0]heptan-6-yl)-1,5-naphthyridine], the Ki in experiment [1] is 0.398 to 3.16 nM. Besides, the IC50 in experiment [2] was 25.1 to 158 nM.

Take `NC1CCN(c2cnc3ccc(-c4c[nH]nc4-c4cc(Cl)ccc4F)nc3c2)C1` (stereo not drawn) [Compound 1-55, 1-[6-[3-(5-chloro-2-fluoro-phenyl)-1H-pyrazol-4-yl]-1,5-naphthyridin-3-yl]pyrrolidin-3-amine]: the Ki in experiment [1] was ≤ 0.0316 nM. Further, in experiment [2], the IC50 is ≤ 20 nM.

Take `CNC1CCN(c2cnc3ccc(-c4c[nH]nc4-c4cc(Cl)ccc4F)nc3c2)C1` (stereo not drawn) [Compound 1-56, 1-[6-[3-(5-chloro-2-fluoro-phenyl)-1H-pyrazol-4-yl]-1,5-naphthyridin-3-yl]-N-methyl-pyrrolidin-3-amine]: in experiment [1], the Ki was 0.0398 to 0.316 nM. For the same molecule, the IC50 in experiment [2] was ≤ 20 nM.

Take `NCCN1CCN(c2cnc3ccc(-c4c[nH]nc4-c4cc(Cl)ccc4F)nc3c2)CC1` [Compound 1-57, 2-[4-[6-[3-(5-chloro-2-fluoro-phenyl)-1H-pyrazol-4-yl]-1,5-naphthyridin-3-yl]piperazin-1-yl]ethanamine]: in experiment [1], the Ki is 0.0398 to 0.316 nM. Further, the IC50 in experiment [2] is 25.1 to 158 nM.

For the molecule `CNC(=O)[C@@H]1CN(c2cnc3ccc(-c4c[nH]nc4-c4cc(Cl)ccc4F)nc3c2)CCN1` [Compound 1-58, (2S)-4-[6-[3-(5-chloro-2-fluoro-phenyl)-1H-pyrazol-4-yl]-1,5-naphthyridin-3-yl]-N-methyl-piperazine-2-carboxamide], the Ki in experiment [1] is 0.0398 to 0.316 nM. Further, the IC50 in experiment [2] was 25.1 to 158 nM.

As for `COC(=O)[C@@H]1CN(c2cnc3ccc(-c4c[nH]nc4-c4cc(Cl)ccc4F)nc3c2)CCN1` [Compound 1-59, methyl (2S)-4-[6-[3-(5-chloro-2-fluoro-phenyl)-1H-pyrazol-4-yl]-1,5-naphthyridin-3-yl]piperazine-2-carboxylate], in experiment [1], the Ki was 0.398 to 3.16 nM. For the same molecule, in experiment [2], the IC50 was 25.1 to 158 nM.

For `CNC1CCN(c2cnc3ccc(-c4c[nH]nc4-c4cc(Cl)ccc4F)nc3c2)CC1` [Compound 1-60, 1-[6-[3-(5-chloro-2-fluoro-phenyl)-1H-pyrazol-4-yl]-1,5-naphthyridin-3-yl]-N-methyl-piperidin-4-amine], the Ki in experiment [1] is 0.0398 to 0.316 nM. Besides, the IC50 in experiment [2] is 25.1 to 158 nM.

For `CN(C)C(=O)[C@H]1CN(c2cnc3ccc(-c4c[nH]nc4-c4cc(Cl)ccc4F)nc3c2)CCN1` [Compound 1-61, (2R)-4-[6-[3-(5-chloro-2-fluoro-phenyl)-1H-pyrazol-4-yl]-1,5-naphthyridin-3-yl]-N,N-dimethyl-piperazine-2-carboxamide], the Ki in experiment [1] was 0.398 to 3.16 nM. The IC50 in experiment [2] was 25.1 to 158 nM.

As to `COC(=O)[C@H]1CN(c2cnc3ccc(-c4c[nH]nc4-c4cc(Cl)ccc4F)nc3c2)CCN1` [Compound 1-62, methyl (2R)-4-[6-[3-(5-chloro-2-fluoro-phenyl)-1H-pyrazol-4-yl]-1,5-naphthyridin-3-yl]piperazine-2-carboxylate], the Ki in experiment [1] was 0.398 to 3.16 nM. In addition, the IC50 in experiment [2] was 25.1 to 158 nM.

Regarding `Fc1ccc(Cl)cc1-c1n[nH]cc1-c1ccc2ncc(N3CCCNCC3)cc2n1` [Compound 1-63, 2-[3-(5-chloro-2-fluoro-phenyl)-1H-pyrazol-4-yl]-7-(1,4-diazepan-1-yl)-1,5-naphthyridine], the Ki in experiment [1] was 0.398 to 3.16 nM. Also, in experiment [2], the IC50 was 25.1 to 158 nM.

In the case of `Fc1ccc(Cl)cc1-c1n[nH]cc1-c1ccc2ncc(N3CC4CNC4C3)cc2n1` (stereo not drawn) [Compound 1-64, 2-[3-(5-chloro-2-fluoro-phenyl)-1H-pyrazol-4-yl]-7-(3,6-diazabicyclo[3.2.0]heptan-3-yl)-1,5-naphthyridine], the Ki in experiment [1] was 0.0398 to 0.316 nM. The IC50 in experiment [2] was ≤ 20 nM.

Turning to `COC(=O)[C@H]1CN(c2cnc3ccc(-c4c[nH]nc4-c4cc(Cl)ccc4F)nc3c2)CCN1C` [Compound 1-65, methyl (2R)-4-[6-[3-(5-chloro-2-fluoro-phenyl)-1H-pyrazol-4-yl]-1,5-naphthyridin-3-yl]-1-methyl-piperazine-2-carboxylate], in experiment [1], the Ki is 0.398 to 3.16 nM. Also, the IC50 in experiment [2] is 25.1 to 158 nM.

Consider `CC(C)NC(=O)[C@H]1CN(c2cnc3ccc(-c4c[nH]nc4-c4cc(Cl)ccc4F)nc3c2)CCN1` [Compound 1-66, (R)-4-(6-(3-(5-Chloro-2-fluorophenyl)-1H-pyrazol-4-yl)-1,5-naphthyridin-3-yl)-N-isopropylpiperazine-2-carboxamide], for which the Ki in experiment [1] is 0.398 to 3.16 nM. In experiment [2], the IC50 was 25.1 to 158 nM.

Take `O=C(NCc1ccccc1)[C@H]1CN(c2cnc3ccc(-c4c[nH]nc4-c4cc(Cl)ccc4F)nc3c2)CCN1` [Compound 1-67, (2R)-N-benzyl-4-[6-[3-(5-chloro-2-fluoro-phenyl)-1H-pyrazol-4-yl]-1,5-naphthyridin-3-yl]piperazine-2-carboxamide]: in experiment [1], the Ki is 0.398 to 3.16 nM. Moreover, in experiment [2], the IC50 was 25.1 to 158 nM.

In the case of `CC(C)OC(=O)[C@H]1CN(c2cnc3ccc(-c4c[nH]nc4-c4cc(Cl)ccc4F)nc3c2)CCN1` [Compound 1-68, isopropyl (2R)-4-[6-[3-(5-chloro-2-fluoro-phenyl)-1H-pyrazol-4-yl]-1,5-naphthyridin-3-yl]piperazine-2-carboxylate], in experiment [1], the Ki was 0.398 to 3.16 nM. Moreover, the IC50 in experiment [2] is 25.1 to 158 nM.

As to `CC(C)N1CC2CN(c3cnc4ccc(-c5c[nH]nc5-c5cc(Cl)ccc5F)nc4c3)CC21` (stereo not drawn) [Compound 1-70, 2-(3-(5-chloro-2-fluorophenyl)-112-pyrazol-4-yl)-7-(6-isopropyl-3,6-diazabicyclo[3.2.0]heptan-3-yl)-1,5-naphthyridine], in experiment [1], the Ki was 0.0398 to 0.316 nM. Also, the IC50 in experiment [2] was 25.1 to 158 nM.

Turning to `CN(C)CCN1CCN(c2cnc3ccc(-c4c[nH]nc4-c4cc(Cl)ccc4F)nc3c2)CC1` [Compound 1-71, 2-[4-[6-[3-(5-chloro-2-fluoro-phenyl)-1H-pyrazol-4-yl]-1,5-naphthyridin-3-yl]piperazin-1-yl]-N,N-dimethyl-ethanamine], the Ki in experiment [1] was ≤ 0.0316 nM. The IC50 in experiment [2] is ≤ 20 nM.

In the case of `CN1CC2CN(c3cnc4ccc(-c5c[nH]nc5-c5cc(Cl)ccc5F)nc4c3)C2C1` (stereo not drawn) [Compound 1-72, 2-[3-(5-chloro-2-fluoro-phenyl)-1H-pyrazol-4-yl]-7-(3-methyl-3,6-diazabicyclo[3.2.0]heptan-6-yl)-1,5-naphthyridine], the Ki in experiment [1] is 0.398 to 3.16 nM. Further, the IC50 in experiment [2] was 25.1 to 158 nM.

Consider `CC(C)N1CC2CN(c3cnc4ccc(-c5c[nH]nc5-c5cc(Cl)ccc5F)nc4c3)C2C1` (stereo not drawn) [Compound 1-73, 2-[3-(5-chloro-2-fluoro-phenyl)-1H-pyrazol-4-yl]-7-(3-isopropyl-3,6-diazabicyclo[3.2.0]heptan-6-yl)-1,5-naphthyridine], for which the Ki in experiment [1] was 3.98 to 31.6 nM. In experiment [2], the IC50 was 25.1 to 158 nM.

`CN1CC2CN(c3cnc4ccc(-c5c[nH]nc5-c5cc(Cl)ccc5F)nc4c3)CC21` (stereo not drawn) [Compound 1-74, 2-[3-(5-chloro-2-fluoro-phenyl)-1H-pyrazol-4-yl]-7-(6-methyl-3,6-diazabicyclo[3.2.0]heptan-3-yl)-1,5-naphthyridine]: the Ki in experiment [1] is 0.398 to 3.16 nM. For the same molecule, the IC50 in experiment [2] was 25.1 to 158 nM.

In the case of `CC(C)NCCN1CCN(c2cnc3ccc(-c4c[nH]nc4-c4cc(Cl)ccc4F)nc3c2)CC1` [Compound 1-76, N-[2-[4-[6-[3-(5-chloro-2-fluoro-phenyl)-1H-pyrazol-4-yl]-1,5-naphthyridin-3-yl]piperazin-1-yl]ethyl]propan-2-amine], the Ki in experiment [1] was ≤ 0.0316 nM. Further, the IC50 in experiment [2] was 25.1 to 158 nM.

For `CN1CCN(C2CCN(c3cnc4ccc(-c5c[nH]nc5-c5cc(Cl)ccc5F)nc4c3)CC2)CC1` [Compound 1-83, 2-[3-(5-chloro-2-fluoro-phenyl)-1H-pyrazol-4-yl]-7-[4-(4-methylpiperazin-1-yl)-1-piperidyl]-1,5-naphthyridine], the Ki in experiment [1] is ≤ 0.0316 nM. Also, in experiment [2], the IC50 is ≤ 20 nM.
